According to PMC6639268 (Journal of Virology, 2019):

System: EBOV (HIV-1/EBOV-GP) pseudotyped virus
Experiment: not given
Settings: not given

SMILES	SI (CC50/IC50), Pseudotyped
CC(C)N[C@H]1C[C@@H](C(=O)CN2CCN(c3cccc(C(F)(F)F)c3)CC2)N(Cc2ccccc2)C1 [Compound S33]	5.0
COc1ccc(OC)c(CN2CCC[C@@H](c3ccnc(SCCN4CCCC4)n3)C2)c1 [Compound S36]	10.6
CN(Cc1cccc(OCCN2CCN(S(=O)(=O)C3CCCCC3Cl)CC2)c1)CC1CCC(=O)N1 (stereo not shown) [Compound I53]	3.0

Same assay, conditions: read-out: IC50, Pseudotyped (no detergent)

SMILES	IC50
CC(C)N[C@H]1C[C@@H](C(=O)CN2CCN(c3cccc(C(F)(F)F)c3)CC2)N(Cc2ccccc2)C1 [Compound S33]	5.85 ± 5.2 µM
COc1ccc(OC)c(CN2CCC[C@@H](c3ccnc(SCCN4CCCC4)n3)C2)c1 [Compound S36]	6.29 ± 1.55 µM
CCOc1ccc([C@@H](O)Cn2c(=N)n(CCN3CCCCC3)c3ccccc32)cc1 [Compound S03]	5.79 ± 6.7 µM
CNC1CCN(c2nc3cc(OC)ccc3cc2CNCCc2ccc(OC)cc2)CC1 [Compound S49]	5.06 µM

System: 293T cells
Experiment: not given
Settings: not given

SMILES	Impact on cell viability (cytotoxicity curves)
CCN1CCC[C@@H]1CN(CC1CCN(COC)CC1)C(=O)CCc1ccc(F)cc1 [Compound S42]	minimal impact on cell viability

System: EBOV trVLP
Experiment: not given
Settings: not given

SMILES	SI (CC50/IC50), trVLP
CC(C)N[C@H]1C[C@@H](C(=O)CN2CCN(c3cccc(C(F)(F)F)c3)CC2)N(Cc2ccccc2)C1 [Compound S33]	5.7
COc1ccc(OC)c(CN2CCC[C@@H](c3ccnc(SCCN4CCCC4)n3)C2)c1 [Compound S36]	5.2
CCOc1ccc([C@@H](O)Cn2c(=N)n(CCN3CCCCC3)c3ccccc32)cc1 [Compound S03]	14.3
CN(Cc1cccc(OCCN2CCN(S(=O)(=O)C3CCCCC3Cl)CC2)c1)CC1CCC(=O)N1 (stereo not shown) [Compound I53]	3.5
CCN1CCC[C@@H]1CN(CC1CCN(COC)CC1)C(=O)CCc1ccc(F)cc1 [Compound S42]	11.2
CNC1CCN(c2nc3cc(OC)ccc3cc2CNCCc2ccc(OC)cc2)CC1 [Compound S49]	5.9

System: not listed separately
Experiment: in vitro
Settings: human, CC50, Pseudotyped

SMILES	CC50
CC(C)N[C@H]1C[C@@H](C(=O)CN2CCN(c3cccc(C(F)(F)F)c3)CC2)N(Cc2ccccc2)C1 [Compound S33]	29 ± 12.4 µM
COc1ccc(OC)c(CN2CCC[C@@H](c3ccnc(SCCN4CCCC4)n3)C2)c1 [Compound S36]	66.9 ± 33.3 µM
CCOc1ccc([C@@H](O)Cn2c(=N)n(CCN3CCCCC3)c3ccccc32)cc1 [Compound S03]	80 ± 45.5 µM
CN(Cc1cccc(OCCN2CCN(S(=O)(=O)C3CCCCC3Cl)CC2)c1)CC1CCC(=O)N1 (stereo not shown) [Compound I53]	110 ± 58 µM
CNC1CCN(c2nc3cc(OC)ccc3cc2CNCCc2ccc(OC)cc2)CC1 [Compound S49]	66.6 ± 34 µM

System: not listed separately
Experiment: in vitro
Settings: human

SMILES	CC50
CC(C)N[C@H]1C[C@@H](C(=O)CN2CCN(c3cccc(C(F)(F)F)c3)CC2)N(Cc2ccccc2)C1 [Compound S33]	17.5 µM
COc1ccc(OC)c(CN2CCC[C@@H](c3ccnc(SCCN4CCCC4)n3)C2)c1 [Compound S36]	16.5 µM
CCOc1ccc([C@@H](O)Cn2c(=N)n(CCN3CCCCC3)c3ccccc32)cc1 [Compound S03]	57.6 ± 24.2 µM
CN(Cc1cccc(OCCN2CCN(S(=O)(=O)C3CCCCC3Cl)CC2)c1)CC1CCC(=O)N1 (stereo not shown) [Compound I53]	47.5 ± 31.8 µM
CCN1CCC[C@@H]1CN(CC1CCN(COC)CC1)C(=O)CCc1ccc(F)cc1 [Compound S42]	124 ± 71.2 µM
CNC1CCN(c2nc3cc(OC)ccc3cc2CNCCc2ccc(OC)cc2)CC1 [Compound S49]	22.4 µM

System: EBOV (HIV-1/EBOV-GP) pseudotyped virus
Experiment: microbe, parasite or virus in culture
Settings: Zaire ebolavirus, HEK-293T, read-out: IC50, Pseudotyped (no detergent)

SMILES	IC50
CC(C)N[C@H]1C[C@@H](C(=O)CN2CCN(c3cccc(C(F)(F)F)c3)CC2)N(Cc2ccccc2)C1 [Compound S33]	< 10 µM
COc1ccc(OC)c(CN2CCC[C@@H](c3ccnc(SCCN4CCCC4)n3)C2)c1 [Compound S36]	< 10 µM
CCOc1ccc([C@@H](O)Cn2c(=N)n(CCN3CCCCC3)c3ccccc32)cc1 [Compound S03]	< 10 µM
CN(Cc1cccc(OCCN2CCN(S(=O)(=O)C3CCCCC3Cl)CC2)c1)CC1CCC(=O)N1 (stereo not shown) [Compound I53]	36.7 µM
CCN1CCC[C@@H]1CN(CC1CCN(COC)CC1)C(=O)CCc1ccc(F)cc1 [Compound S42]	11.6 ± 9.95 µM
CNC1CCN(c2nc3cc(OC)ccc3cc2CNCCc2ccc(OC)cc2)CC1 [Compound S49]	< 10 µM

Same assay, conditions: Zaire ebolavirus, HEK-293T, read-out: IC50 with Tween 80

SMILES	IC50
CC(C)N[C@H]1C[C@@H](C(=O)CN2CCN(c3cccc(C(F)(F)F)c3)CC2)N(Cc2ccccc2)C1 [Compound S33]	8.12 ± 2.37 µM
COc1ccc(OC)c(CN2CCC[C@@H](c3ccnc(SCCN4CCCC4)n3)C2)c1 [Compound S36]	4.83 ± 1.11 µM
CCOc1ccc([C@@H](O)Cn2c(=N)n(CCN3CCCCC3)c3ccccc32)cc1 [Compound S03]	5.21 µM
CN(Cc1cccc(OCCN2CCN(S(=O)(=O)C3CCCCC3Cl)CC2)c1)CC1CCC(=O)N1 (stereo not shown) [Compound I53]	35.3 µM
CCN1CCC[C@@H]1CN(CC1CCN(COC)CC1)C(=O)CCc1ccc(F)cc1 [Compound S42]	36.5 ± 16.6 µM
CNC1CCN(c2nc3cc(OC)ccc3cc2CNCCc2ccc(OC)cc2)CC1 [Compound S49]	17.8 ± 10.6 µM

System: EBOV trVLP
Experiment: microbe, parasite or virus in culture
Settings: Zaire ebolavirus, HEK-293T, read-out: IC50, trVLP

SMILES	IC50
CC(C)N[C@H]1C[C@@H](C(=O)CN2CCN(c3cccc(C(F)(F)F)c3)CC2)N(Cc2ccccc2)C1 [Compound S33]	3.06 µM
COc1ccc(OC)c(CN2CCC[C@@H](c3ccnc(SCCN4CCCC4)n3)C2)c1 [Compound S36]	3.19 µM
CCOc1ccc([C@@H](O)Cn2c(=N)n(CCN3CCCCC3)c3ccccc32)cc1 [Compound S03]	4.04 µM
CN(Cc1cccc(OCCN2CCN(S(=O)(=O)C3CCCCC3Cl)CC2)c1)CC1CCC(=O)N1 (stereo not shown) [Compound I53]	13.6 ± 12.2 µM
CCN1CCC[C@@H]1CN(CC1CCN(COC)CC1)C(=O)CCc1ccc(F)cc1 [Compound S42]	11.1 ± 12.9 µM
CNC1CCN(c2nc3cc(OC)ccc3cc2CNCCc2ccc(OC)cc2)CC1 [Compound S49]	3.81 ± 3.16 µM
